# PMC7691401, “^68Ga, ^44Sc and ^177Lu-labeled AAZTA^5-PSMA-617: synthesis, radiolabeling, stability and cell binding compared to DOTA-PSMA-617 analogues” (EJNMMI Radiopharmacy and Chemistry, 2020)
# Read-outs that look alike come from different tables or passages of the source.
# What was measured:
# [1] = system: PSMA-positive LNCaP cells; settings: cited from earlier work
# PSMA = biological target: T1, PSMA (Homo sapiens, UniProt Q04609); settings: LNCaP cells, read-out: Ki ± SD, cited from earlier work
# T1 construct: 10^5 LNCaP cells per well were incubated with 0.75 nM [^68Ga]Ga-PSMA-10; host or cells: LNCaP
# [2] = set-up: method as in Sinnes et al. [2019]; settings: PBS, ref Sinnes et al. [2019], in % (unit assumed), cited from earlier work
# [3] = set-up: method as in Sinnes et al. [2019]; settings: HS, ref Sinnes et al. [2019], in % (unit assumed), cited from earlier work
# PC3 cells = test: Internalization studies in PC3 cells (negative control); type: cell-based, human; settings: PSMA-negative PC3 cells
# Protocol: (§1) The in vitro experiments were performed using the PSMA-positive LNCaP cell line (androgen-sensitive human lymph node metastatic lesion of prostatic adenocarcinoma, CRL-1740 [American Type Culture Collection]) (Benešová et al. [2015]). For negative control, PSMA-PC3 cells (bone metastasis of a grade IV prostatic adenocarcinoma, ATCC CRL-1435) were used (Eder et al. [2012a]). The cells were cultured in RPMI1640 medium supplemented with 10% fetal calf serum and L-glutamine and incubated at 37 °C in an environment of humidified air containing 5% CO2. The cells were harvested using trypsin-ethylenediaminetetraacetic acid (trypsin-EDTA; 0.05% trypsin, 0.02% EDTA, all from PAN Biotech).
# For internalization studies 10^5 LNCaP or PC3 cells were seeded in poly(L-lysine)-coated 24-well cell culture plates at 37 °C in an environment of humidified air containing 5% CO2 for 24 h. (Mier et al. [2007]). The medium is removed and 250 μl of radiolabeled 30 nM AAZTA^5-PSMA is replaced for 45 min. One plate is being incubated at 37 °C and the second one at 4 °C to inhibit the internalization. The specificity of the ligands is proofed by addition 500 μM of 2-(phosphonomethyl)-pentanedioic acid (2-PMPA, Axxora, Loerrach, Germany). After incubation, the cells were washed three times with 1 ml ice cold PBS. […]
# [4] = system: PSMA-positive LNCaP cells; test: Internalization studies in LNCaP cells; type: cell-based, human; settings: for specific internalization or cell surface binding: PSMA-positive LNCaP cells
# Protocol: as §1
# For internalization studies 10^5 LNCaP or PC3 cells were seeded in poly(L-lysine)-coated 24-well cell culture plates at 37 °C in an environment of humidified air containing 5% CO2 for 24 h. (Mier et al. [2007]). The medium is removed and 250 μl of radiolabeled 30 nM AAZTA^5-PSMA is replaced for 45 min. One plate is being incubated at 37 °C and the second one at 4 °C to inhibit the internalization. The specificity of the ligands is proofed by addition 500 μM of 2-(phosphonomethyl)-pentanedioic acid (2-PMPA, Axxora, Loerrach, Germany). After incubation, the cells were washed three times with 1 ml ice cold PBS. To determine the surface-bound activity cells were incubated twice with 0.5 ml of glycine-HCl in PBS (50 mM, pH 2.8) each for 5 min at room temperature. Both washing steps were collected for measuring with a gamma counter (Packard Cobra II, GMI, Minnesota, USA). Before lysating the cells with 0.5 mL of 0.3 M NaOH to determine the internalized fraction, they were once washed with 1 ml ice cold PBS (Eder et al. [2012a]).
# [5] = set-up: method as in Sinnes et al. [2019]; settings: ref Sinnes et al. [2019], in % (unit assumed), cited from earlier work
# [6] = LNCaP cells, ref Benešová et al. [2015]
# T1 sequence (Q04609 whole entry): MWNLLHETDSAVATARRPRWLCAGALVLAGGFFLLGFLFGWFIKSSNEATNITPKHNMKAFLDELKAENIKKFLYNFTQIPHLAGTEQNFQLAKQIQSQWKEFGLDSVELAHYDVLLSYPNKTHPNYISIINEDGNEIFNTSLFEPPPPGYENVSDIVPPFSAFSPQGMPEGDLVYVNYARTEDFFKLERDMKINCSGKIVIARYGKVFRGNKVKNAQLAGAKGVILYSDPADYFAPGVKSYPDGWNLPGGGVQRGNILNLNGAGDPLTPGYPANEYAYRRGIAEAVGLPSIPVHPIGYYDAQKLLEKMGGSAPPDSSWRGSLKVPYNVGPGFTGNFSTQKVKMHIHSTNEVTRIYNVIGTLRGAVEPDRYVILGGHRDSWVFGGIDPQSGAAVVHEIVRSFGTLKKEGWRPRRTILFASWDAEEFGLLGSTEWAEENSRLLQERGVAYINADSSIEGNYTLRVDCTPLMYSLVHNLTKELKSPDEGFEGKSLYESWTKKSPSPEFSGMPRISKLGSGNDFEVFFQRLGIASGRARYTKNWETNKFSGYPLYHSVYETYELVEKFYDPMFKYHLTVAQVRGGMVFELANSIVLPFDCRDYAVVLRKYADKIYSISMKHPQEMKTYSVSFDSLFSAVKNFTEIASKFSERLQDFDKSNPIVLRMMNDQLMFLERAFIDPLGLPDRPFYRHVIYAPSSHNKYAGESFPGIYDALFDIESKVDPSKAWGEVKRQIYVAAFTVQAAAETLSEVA
compound,measurement,setting,value
O=C(O)CCC(NC(=O)NC(CCCCNC(=O)C(Cc1ccc2ccccc2c1)NC(=O)C1CCC(CNC(=O)CN2CCN(CC(=O)O)CCN(CC(=O)O)CCN(CC(=O)O)CC2)CC1)C(=O)O)C(=O)O.[Ga+3] (stereo not drawn) [[^nat/68Ga]Ga-PSMA-617],%internalization / total cellular activity ratio,[1]; [6],around 45%
same,Internalization ± SD,[1]; [6],17.7 ± 4.4 %IA/10^6 cells
same,%internalization / total cellular activity ratio,"[1]; LNCaP cells, ref Benešová et al. [2015], listed as [^68Ga]Ga-DOTA-PSMA-617",47%
same,Ki,PSMA; ref Benešová et al. [2015],6.4 ± 1 nM
O=C(O)CCCCC1(N(CC(=O)O)CC(=O)O)CN(CC(=O)O)CCN(CC(=O)O)C1.[44Sc+3] [^44Sc AAZTA^5],Stability values,[2]; 1 h,95.3 ± 0.9
same,Stability values,[2]; 4 h,92.7 ± 1.3
same,Stability values,[2]; 8 h,95.9 ± 1.2
same,Stability values,[2]; 24 h,96.0 ± 0.8
same,Stability values,[3]; 1 h,93.7 ± 0.9
same,Stability values,[3]; 4 h,94.3 ± 1.7
same,Stability values,[3]; 8 h,93.2 ± 1.1
same,Stability values,[3]; 24 h,91.3 ± 1.8
same,specific internalization or cell surface binding,PC3 cells,no surface activity or internalization
same,specific internalization or cell surface binding,[4],no surface activity or internalization
same,Stability values,"[5]; DTPA, 1 h",94.3 ± 0.9
same,Stability values,"[5]; DTPA, 4 h",92.5 ± 0.5
same,Stability values,"[5]; DTPA, 8 h",93.8 ± 1.2
same,Stability values,"[5]; DTPA, 24 h",93.4 ± 1.1
same,Stability values,"[5]; EDTA, 1 h",93.7 ± 1.3
same,Stability values,"[5]; EDTA, 4 h",90.0 ± 3.2
same,Stability values,"[5]; EDTA, 8 h",92.3 ± 2.1
same,Stability values,"[5]; EDTA, 24 h",91.9 ± 1.8
O=C([O-])CN(CCN(CC(=O)[O-])Cc1cc(CCC(=O)NCCCCCC(=O)NCCCC[C@H](NC(=O)N[C@@H](CCC(=O)O)C(=O)O)C(=O)O)ccc1[O-])Cc1cc(CCC(=O)O)ccc1[O-].[68Ga+3].[OH3+] [[^nat/68Ga]Ga-PSMA-11],Internalization ± SD,[1]; [6],9.5 ± 2.6 %IA/10^6 cells
same,Ki,PSMA; ref Eder et al. [2012a],12 ± 2.8 nM
O=C(O)CCCCC1(N(CC(=O)O)CC(=O)O)CN(CC(=O)O)CCN(CC(=O)O)C1.[68Ga+3] [[^68Ga]Ga-AAZTA^5],Stability values,[2]; 0.5 h,97.5 ± 1.0
same,Stability values,[2]; 1 h,88.7 ± 0.5
same,Stability values,[2]; 2 h,78.5 ± 4.5
same,Stability values,[3]; 0.5 h,93.0 ± 0.8
same,Stability values,[3]; 1 h,92.7 ± 1.3
same,Stability values,[3]; 2 h,85.3 ± 3.4
same,Stability values,"[5]; DTPA, 0.5 h",84.3 ± 0.9
same,Stability values,"[5]; DTPA, 1 h",78.0 ± 1.4
same,Stability values,"[5]; DTPA, 2 h",45.7 ± 1.3
same,Stability values,"[5]; EDTA, 0.5 h",93.0 ± 0.2
same,Stability values,"[5]; EDTA, 1 h",50.3 ± 7.4
same,Stability values,"[5]; EDTA, 2 h",49.5 ± 2.5
O=C(O)CCCCC1(N(CC(=O)O)CC(=O)O)CN(CC(=O)O)CCN(CC(=O)O)C1.[177Lu+3] [^177Lu AAZTA^5],Stability values,[2]; 1 h,97.8 ± 0.5
same,Stability values,[2]; 2 h,98.6 ± 0.4
same,Stability values,[2]; 24 h,99.1 ± 0.6
same,Stability values,[2]; 7 d,96.0 ± 0.8
same,Stability values,[3]; 1 h,99.8 ± 0.1
same,Stability values,[3]; 2 h,99.7 ± 0.1
same,Stability values,[3]; 24 h,99.9 ± 0.1
same,Stability values,[3]; 7 d,82.5 ± 3.2
same,specific internalization or cell surface binding,PC3 cells,no surface activity or internalization
same,specific internalization or cell surface binding,[4],no surface activity or internalization
same,Stability values,"[5]; DTPA, 1 h",99.1 ± 0.2
same,Stability values,"[5]; DTPA, 2 h",99.1 ± 0.1
same,Stability values,"[5]; DTPA, 24 h",80.4 ± 5.4
same,Stability values,"[5]; DTPA, 7 d",59.0 ± 14.3
same,Stability values,"[5]; EDTA, 1 h",98.9 ± 0.2
same,Stability values,"[5]; EDTA, 2 h",97.9 ± 0.3
same,Stability values,"[5]; EDTA, 24 h",79.2 ± 2.9
same,Stability values,"[5]; EDTA, 7 d",48.9 ± 1.5
O=C(O)CCC(NC(=O)NC(CCCCNC(=O)C(Cc1ccc2ccccc2c1)NC(=O)C1CCC(CNC(=O)CN2CCN(CC(=O)O)CCN(CC(=O)O)CCN(CC(=O)O)CC2)CC1)C(=O)O)C(=O)O.[Sc+3] (stereo not drawn) [[^nat/44Sc]Sc-PSMA-617],Internalization ± SD,"[1]; LNCaP cells, ref Eppard et al. [2017]",15.8 ± 2.1 %IA/10^6 cells
same,Ki,PSMA; ref Eppard et al. [2017],4.7 ± 0.8 nM
O=C(O)CCC(NC(=O)NC(CCCCNC(=O)C(Cc1ccc2ccccc2c1)NC(=O)C1CCC(CNC(=O)CN2CCN(CC(=O)O)CCN(CC(=O)O)CCN(CC(=O)O)CC2)CC1)C(=O)O)C(=O)O.[Lu+3] (stereo not drawn) [[^nat/177Lu]Lu-PSMA-617],Internalization ± SD,[1]; [6],17.5 ± 3.1 %IA/10^6 cells
same,%internalization / total cellular activity ratio,[1]; ref Umbricht et al. [2017],10–15%
same,Ki,PSMA; ref Benešová et al. [2015],6.9 ± 1.3 nM
same,%internalization / total cellular activity ratio,"[4]; LNCaP cells, 37 °C, surface versus internalized activity, this assay",27%
